Assay results from US20260248763A1 (BIO GENUINE (SHANGHAI) BIOTECH CO., LTD, priority 2023, published 2026).

What was measured:
[1] = biological target: T1, V1aR (Homo sapiens, UniProt P37288); experiment: Ca2+ mobilization in cells stably expressing V1aR (FLIPR, antagonist mode); format: cell-based; conditions: V1a-CHO stably transfected cell line
T1 construct: expressed in transfected cells; host or cells: V1a-CHO stably transfected cell line
Excerpt: Test Example 2. Determination of the Effect of the Compound of the Present Disclosure on Ca^2+ Mobilization in Cells Stably Expressing V1aR
To measure the antagonistic effect of the compound of the present disclosure on V1aR activity expressed in the V1a-CHO stably transfected cell line.
• F-12 (Hyclone, SH30026.01) • FLIPR CALCIUM 6 ASSAY KIT (Molecul Device, R8191) • Fetal Bovine Serum (FBS) (AusGeneX, FBS500-S) • Hygromycin B (Solarbio, H8080-1g) • DMSO (Sigma, D4540) • HBSS (Gibco 14025-092) • Probenecid (MCE, HY—B0545) • 0.36 mL 96 Round V-bottom Deep Well Plates for Laboratory (Biaosen P-0.36-BSA-96) • 384-well conical bottom polypropylene plate (Nunc, 264573) • Corning® 384-well Flat Clear Bottom Black Polystyrene TC-treated Microplates (Corning 3764)
• Biological safety cabinet (ECSO, AC2-6S1-TC) • Carbon dioxide cell incubator (ECSO, CCI-170B-8) • Inverted microscope (Olympus, CKX53) • Microplate low-speed centrifuge (Xiangzhi, TD5B) • FLIPR® Penta (Molecul Device, 5.0)
• 1. Cell plating: V1a-CHO cells were digested and harvested, resuspended and counted, and then inoculated into a 384-well cell plate at a density of: 1.2×10^4 cells/25 μL/well. The cell plate was then incubated in an incubator at 37° C. with 5% CO2 for about 16-20 h. • 2. The next day: after preparing Assay Buffer, 20× Component A was thawed to room temperature, diluted with Assay buffer to 1× loading buffer, and placed at room temperature for later use. • 3. The medium was removed from the cell plate, and 40 μL of 1× loading buffer was quickly added to each well. After centrifugation, the cell plate was incubated at 37° C. in the dark for 120 minutes. • 4. The serially diluted positive compound, serially diluted test compound, and agonist working solution were formulated. After mixing the serially diluted positive compound/serially diluted test compound with the agonist at a 1:1 ratio, 20 μL per well was transferred to a 384-well compound source plate. • 5. The cell plate, agonist source plate, and pipette tips were placed into their respective positions in the FLIPR instrument. Using FLIPR Tetra, 10 μL of the diluted agonist from Step 4 was added to each test well, and the data were collected at a wavelength of 515 nm-575 nm. • 6. The signal values were plotted against the compound concentrations, and the curve fitting and IC50 calculation were performed using the nonlinear regression method of GraphPad Prism software.

[2] = biological target: T2, OTR (Homo sapiens, UniProt P30559); experiment: Ca2+ mobilization in cells stably expressing OTR (FLIPR, antagonist mode); format: cell-based; conditions: OTR/HEK293 stably transfected cell line
T2 construct: expressed in transfected cells; host or cells: OTR/HEK293 stably transfected cell line
T2 sequence (P30559 1-389): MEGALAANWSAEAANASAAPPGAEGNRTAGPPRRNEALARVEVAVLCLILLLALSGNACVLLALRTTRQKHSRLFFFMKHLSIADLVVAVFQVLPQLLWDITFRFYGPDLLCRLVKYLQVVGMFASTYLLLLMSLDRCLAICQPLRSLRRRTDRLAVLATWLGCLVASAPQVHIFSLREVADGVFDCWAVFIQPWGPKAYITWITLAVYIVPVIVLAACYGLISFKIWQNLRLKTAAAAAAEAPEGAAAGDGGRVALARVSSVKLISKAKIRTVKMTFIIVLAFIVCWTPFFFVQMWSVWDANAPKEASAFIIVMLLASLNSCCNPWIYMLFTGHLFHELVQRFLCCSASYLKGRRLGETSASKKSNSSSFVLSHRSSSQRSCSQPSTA
Summary of the method: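 OTR/HEK293 stable cells (20,000 per well) were loaded with Fluo-4 Direct plus probenecid. Cells were pre-exposed to 10-point, 3-fold compound dilutions before agonist challenge at EC80, determined beforehand per cell line. FLIPR calcium fluorescence (Max-Min) was fitted in Prism.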

T1 sequence (P37288 whole entry, species assumed): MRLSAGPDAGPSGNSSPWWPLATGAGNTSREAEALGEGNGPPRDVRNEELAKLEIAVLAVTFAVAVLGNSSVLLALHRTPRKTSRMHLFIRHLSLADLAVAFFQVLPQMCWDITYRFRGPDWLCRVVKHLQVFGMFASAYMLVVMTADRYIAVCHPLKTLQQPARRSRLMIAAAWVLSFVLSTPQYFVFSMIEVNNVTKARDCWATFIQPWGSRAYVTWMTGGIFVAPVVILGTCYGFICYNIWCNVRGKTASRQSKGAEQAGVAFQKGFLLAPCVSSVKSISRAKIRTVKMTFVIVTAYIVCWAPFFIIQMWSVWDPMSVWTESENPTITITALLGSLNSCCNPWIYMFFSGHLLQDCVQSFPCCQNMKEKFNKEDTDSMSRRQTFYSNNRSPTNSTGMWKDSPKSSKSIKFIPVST

Q: Which results are given for `CO/N=C1/C[C@@H](C(C)O)N(C(=O)c2ccc(-c3ccccc3C)cc2)C1` (mixture of isomers) [Example C0067, (S, Z, RS)-(2-(1-Hydroxyethyl)-4-(methoxyimino)pyrrolidin-1-yl)(2′-methyl-[1,1′-biphenyl]-4-yl)methanone]?
A: IC50 [1]: 223 nM; IC50 [2]: 13 nM

Q: Which IC50 [1] does the source give for `CON=C1CC(CO)N(C(=O)c2ccc(-c3cccc(C#N)c3C)c3c2OCO3)C1` (single isomer, unassigned) [Example C0098] here?
A: Its IC50 is 13200 nM.

Q: And the IC50 [2]?
A: The IC50 was 55.9 nM.

Q: Which results are given for `CO/N=C1/C[C@@H]([C@H](C)O)N(C(=O)c2ccc(-c3cccc(C#N)c3C)cc2)C1` (single isomer, unassigned) [Example C0111]?
A: IC50 [1]: 2350 nM; IC50 [2]: 12.6 nM

Q: Which results are given for `CO/N=C1\C[C@@H]([C@@H](C)O)N(C(=O)c2ccc(-c3cccc(C#N)c3C)cc2)C1` (single isomer, unassigned) [Example C0113]?
A: IC50 [1]: 1560 nM; IC50 [2]: 55.3 nM

Q: Which results are given for `CO/N=C1/C[C@@H](CO)N(C(=O)c2cnc(-c3cccc(C)c3C)cn2)C1` [Example A0061, (S, Z)-(5-(2,3-Dimethylphenyl)pyrazin-2-yl)(2-(hydroxymethyl)-4-(methoxyimino)pyrrolidin-1-yl)methanone]?
A: IC50 [1]: 2390 nM; IC50 [2]: 99.8 nM

Q: How did the IC50 [1] turn out when `CO/N=C1/C[C@@H](CO)N(C(=O)c2ccc(-c3cccc(C)c3C)c(C(F)F)c2)C1` [Example A0134, (S,Z)-(2-(Difluoromethyl)-2′, 3′-dimethyl-[1,1′-biphenyl]-4-yl)(2-(hydroxymethyl)-4-(methoxyimino)pyrrolidin-1-yl)methanone] was run?
A: Its IC50 is 5820 nM.

Q: And the IC50 [2]?
A: Its IC50 is 13.1 nM.

Q: For `CO/N=C1/C[C@@H](CO)N(C(=O)c2ccc(-c3cccc(C)c3C)c(OCCO)c2)C1` [Example A0148, (S, Z)-(2-(2-Hydroxyethoxy)-2′,3′-dimethyl-[1,1′-biphenyl]-4-yl)(2-(hydroxymethyl)-4-(methoxyimino)pyrrolidin-1-yl)methanone], which IC50 [1] is on record?
A: Its IC50 is 732 nM.

Q: What about the IC50 [2] of the same compound?
A: The IC50 was 34.4 nM.

Q: What does the source list for `CO/N=C1/C[C@@H](CO)N(C(=O)c2ccc(-c3cccc(C)c3C)c(C(=O)NC3COC3)c2)C1` [Example A0157, (S, Z)-4-(2-(Hydroxymethyl)-4-(methoxyimino)pyrrolidine-1-carbonyl)-2′, 3′-dimethyl-N-(oxetan-3-yl)-[1,1′-biphenyl]-2-carboxamide]?
A: IC50 [1]: 6740 nM; IC50 [2]: 119 nM

Q: How did the IC50 [1] turn out when `CO/N=C1/C[C@@H](CO)N(C(=O)c2ccc(-c3cccc(C#N)c3C)c3c2OCCN3C)C1` [Example A0162] was run?
A: Its IC50 is 587 nM.

Q: What about the IC50 [2] of the same compound?
A: Its IC50 is 31.5 nM.

Q: Which results are given for `CO/N=C1/C[C@@H](CO)N(C(=O)c2ccc(-c3cccc(C#N)c3C)c3c2cnn3C)C1` [Example A0167, 3-(4-[(2S,4Z)-2-(Hydroxymethyl)-4-(methoxyimino)pyrrolidine-1-carbonyl]-1-methyl-1H-indazol-7-yl)-2-methylbenzonitrile]?
A: IC50 [1]: 1480 nM; IC50 [2]: 49.8 nM

Q: With `CO/N=C1/C[C@@H](CO)N(C(=O)c2ccc(-c3cccc(C#N)c3C)c(C#N)c2)C1` [Example A0173, 2-(3-Cyano-2-methylphenyl)-5-[(2S, 4Z)-2-(hydroxymethyl)-4-(methoxyimino)pyrrolidine-1-carbonyl]benzonitrile] as the compound, how does the IC50 [1] read?
A: The IC50 was 8770 nM.

Q: And the IC50 [2]?
A: The IC50 was 36.1 nM.

Q: For `COCCOc1cc(C(=O)N2C/C(=N\OC)C[C@H]2CO)ccc1-c1cccc(C#N)c1C` [Example A0191, (S, Z)-4′-(2-(Hydroxymethyl)-4-(methoxyimino)pyrrolidine-1-carbonyl)-2′-(2-methoxyethoxy)-2-methyl-[1, 1′-biphenyl]-3-carbonitrile], which IC50 [1] is on record?
A: The IC50 was 1020 nM.

Q: What about the IC50 [2] of the same compound?
A: The IC50 was 16.8 nM.

Q: With `CO/N=C1/C[C@@H](CO)N(C(=O)c2ccc(-c3cccc(C#N)c3C)c(OC)n2)C1` [Example A0215, 3-(6-[(2S, 4Z)-2-(Hydroxymethyl)-4-(methoxyimino)pyrrolidine-1-carbonyl]-2-methoxypyridin-3-yl)-2-methylbenzonitrile] as the compound, how does the IC50 [1] read?
A: Its IC50 is 11200 nM.

Q: What about the IC50 [2] of the same compound?
A: Its IC50 is 58.7 nM.

Q: Which IC50 [1] does the source give for `CO/N=C1/C[C@@H](CO)N(C(=O)c2ccc(-c3cccc(C#N)c3C)c3c2OCCCO3)C1` [Example A0235, (S,Z)-3-(9-(2-(Hydroxymethyl)-4-(methoxyimino)pyrrolidine-1-carbonyl)-3,4-dihydro-2H-benzo[b][1,4]dioxepin-6-yl)-2-methylbenzonitrile] here?
A: The IC50 was 1360 nM.

Q: What about the IC50 [2] of the same compound?
A: Its IC50 is 23.2 nM.

Q: With `CO/N=C1/C[C@@H](CO)N(C(=O)c2ncc(-c3cccc(C)c3C)s2)C1` [Example C0097, (S, Z)-(5-(2,3-Dimethylphenyl)thiazol-2-yl)(2-(hydroxymethyl)-4-(methoxyimino)pyrrolidin-1-yl)methanone] as the compound, how does the IC50 [2] read?
A: Its IC50 is 815 nM.

Q: `CO/N=C1/C[C@@H](CO)N(C(=O)c2ccc(-c3cccc(C)c3C)c(=O)n2C)C1` [Example C0103, (S,Z)-3-(2,3-Dimethylphenyl)-6-(2-(hydroxymethyl)-4-(methoxyimino)pyrrolidine-1-carbonyl)-1-methylpyridin-2(1H)-one] was tested. Which IC50 [2] did it give?
A: Its IC50 is 1480 nM.

Q: `CO/N=C1/C[C@@H](CO)N(C(=O)c2ccc(-c3cccc(C#N)c3C(F)(F)F)cc2)C1` [Example C0127, (S, Z)-4′-(2-(Hydroxymethyl)-4-(methoxyimino)pyrrolidine-1-carbonyl)-2-(trifluoromethyl)-[1,1′-biphenyl]-3-carbonitrile] was tested. Which IC50 [2] did it give?
A: The IC50 was 102 nM.

Q: With `CO/N=C1/C[C@@H](CO)N(C(=O)c2ccc(-c3cccc(C(F)F)c3C)c3c2OCCO3)C1` [Example C0137, (S,Z)-(8-(3-(Difluoromethyl)-2-methylphenyl)-2,3-dihydrobenzo[b][1,4]dioxin-5-yl)(2-(hydroxymethyl)-4-(methoxyimino)pyrrolidin-1-yl)methanone] as the compound, how does the IC50 [2] read?
A: Its IC50 is 7.43 nM.

Q: With `CO/N=C1/C[C@@H](CO)N(C(=O)c2ccc(-c3c(F)ccc(C#N)c3C)c3c2OCO3)C1` [Example C0139, 4-Fluoro-3-(7-((S,Z)-2-(hydroxymethyl)-4-(methoxyimino)pyrrolidine-1-carbonyl)benzo[d][1,3]dioxol-4-yl)-2-methylbenzonitrile] as the compound, how does the IC50 [2] read?
A: The IC50 was 40.5 nM.

Q: How did the IC50 [2] turn out when `CO/N=C1/C[C@@H](CO)N(C(=O)c2ccc(-c3cc(F)cc(C#N)c3C)c3c2OCO3)C1` [Example C0144, (S,Z)-5-Fluoro-3-(7-(2-(hydroxymethyl)-4-(methoxyimino)pyrrolidine-1-carbonyl)benzo[d][1,3]dioxol-4-yl)-2-methylbenzonitrile] was run?
A: Its IC50 is 59.9 nM.

Q: How did the IC50 [2] turn out when `CO/N=C1/C[C@@H](CO)N(C(=O)c2ccc3c(c2)OCCc2c(C#N)cccc2-3)C1` [Example C0146, (S, Z)-3-(2-(Hydroxymethyl)-4-(methoxyimino)pyrrolidine-1-carbonyl)-6,7-dihydrodibenzo[b,d]oxepine-8-carbonitrile] was run?
A: The IC50 was 228 nM.

Q: Which IC50 [2] does the source give for `CO/N=C1\C[C@@H](CO)N(C(=O)c2ccc(-c3ccc(F)c(C#N)c3C)c3c2OCCO3)C1` [Example C0148, (S,E)-6-Fluoro-3-(8-(2-(hydroxymethyl)-4-(methoxyimino)pyrrolidine-1-carbonyl)-2,3-dihydrobenzo[b][1,4]dioxin-5-yl)-2-methylbenzonitrile] here?
A: Its IC50 is 158 nM.

Q: How did the IC50 [2] turn out when `CO/N=C1\C[C@@H](CO)N(C(=O)c2ccc(-c3cccc(C#N)c3C)cc2F)C1` [Example C0156, (S,E)-3′-Fluoro-4′-(2-(hydroxymethyl)-4-(methoxyimino)pyrrolidine-1-carbonyl)-2-methyl-[1,1′-biphenyl]-3-carbonitrile] was run?
A: The IC50 was 73.6 nM.

Q: With `CO/N=C1\C[C@@H](C(C)(C)O)N(C(=O)c2ccc(-c3cccc(C#N)c3C)cc2)C1` [Example C0163, (S,E)-4′-(2-(2-Hydroxypropan-2-yl)-4-(methoxyimino)pyrrolidine-1-carbonyl)-2-methyl-[1,1′-biphenyl]-3-carbonitrile] as the compound, how does the IC50 [2] read?
A: Its IC50 is 72 nM.
